Test results: US20080234262A1 (Wyeth, priority 2007, published 2008)
pIC50: −log10 of the molar value.

Key:
breast line MDA468 = experiment: In vitro cell culture growth assay (MTS), MDA468; assay type: cell-based, human; settings: MDA468 cells, three days after drug treatment
Method in brief: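 Cells were plated and, one day later, exposed to inhibitors for three days; viable cell density was then measured by metabolic conversion of MTS dye, read as absorbance at 490 nm. Growth is expressed as percent of vehicle-treated control cells on the same plate.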

prostate line LNCap = experiment: In vitro cell culture growth assay (MTS), LNCap; assay type: cell-based, human; settings: LNCap cells, three days after drug treatment
PI3K = PI3K (Homo sapiens, UniProt P42336); experiment: Fluorescence polarization assay for PI3K; assay type: biochemical; settings: PI3Kα; read-out: PI3Kα IC50;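 note: PI3K kinase reaction on PIP2 with ATP, 30-60 min, product sensed by GST-GRP with red probe in fluorescence polarization (mP), controls without enzyme and at zero time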
Sequence of PI3K (P42336 whole entry): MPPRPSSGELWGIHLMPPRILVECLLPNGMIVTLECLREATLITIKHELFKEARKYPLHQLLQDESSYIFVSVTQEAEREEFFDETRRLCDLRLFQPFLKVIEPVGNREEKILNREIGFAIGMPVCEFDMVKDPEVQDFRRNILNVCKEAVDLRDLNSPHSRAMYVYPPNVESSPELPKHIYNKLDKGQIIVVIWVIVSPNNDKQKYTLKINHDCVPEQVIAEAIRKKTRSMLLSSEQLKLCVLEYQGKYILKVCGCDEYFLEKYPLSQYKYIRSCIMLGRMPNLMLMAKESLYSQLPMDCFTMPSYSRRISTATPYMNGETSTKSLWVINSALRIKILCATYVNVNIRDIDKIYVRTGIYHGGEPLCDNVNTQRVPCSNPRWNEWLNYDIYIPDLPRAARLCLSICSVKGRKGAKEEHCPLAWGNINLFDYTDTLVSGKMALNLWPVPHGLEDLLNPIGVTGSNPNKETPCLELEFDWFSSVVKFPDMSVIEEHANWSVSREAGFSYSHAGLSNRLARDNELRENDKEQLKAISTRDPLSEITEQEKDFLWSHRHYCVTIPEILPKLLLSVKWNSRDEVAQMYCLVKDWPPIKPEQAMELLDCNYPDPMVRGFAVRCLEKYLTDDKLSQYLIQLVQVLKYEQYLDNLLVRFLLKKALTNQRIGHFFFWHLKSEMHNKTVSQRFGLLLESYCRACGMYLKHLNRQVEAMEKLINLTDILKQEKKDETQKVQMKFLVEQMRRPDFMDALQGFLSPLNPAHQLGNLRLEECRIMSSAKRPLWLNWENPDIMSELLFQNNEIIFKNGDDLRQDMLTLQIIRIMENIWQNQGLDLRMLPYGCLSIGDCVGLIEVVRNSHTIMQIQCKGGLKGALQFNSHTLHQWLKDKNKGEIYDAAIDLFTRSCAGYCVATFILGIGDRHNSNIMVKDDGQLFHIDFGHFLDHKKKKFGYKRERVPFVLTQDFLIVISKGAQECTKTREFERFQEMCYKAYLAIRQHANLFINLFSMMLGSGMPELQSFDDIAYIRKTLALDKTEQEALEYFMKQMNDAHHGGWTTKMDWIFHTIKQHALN
Sequence of PI3K (P27986 whole entry partner): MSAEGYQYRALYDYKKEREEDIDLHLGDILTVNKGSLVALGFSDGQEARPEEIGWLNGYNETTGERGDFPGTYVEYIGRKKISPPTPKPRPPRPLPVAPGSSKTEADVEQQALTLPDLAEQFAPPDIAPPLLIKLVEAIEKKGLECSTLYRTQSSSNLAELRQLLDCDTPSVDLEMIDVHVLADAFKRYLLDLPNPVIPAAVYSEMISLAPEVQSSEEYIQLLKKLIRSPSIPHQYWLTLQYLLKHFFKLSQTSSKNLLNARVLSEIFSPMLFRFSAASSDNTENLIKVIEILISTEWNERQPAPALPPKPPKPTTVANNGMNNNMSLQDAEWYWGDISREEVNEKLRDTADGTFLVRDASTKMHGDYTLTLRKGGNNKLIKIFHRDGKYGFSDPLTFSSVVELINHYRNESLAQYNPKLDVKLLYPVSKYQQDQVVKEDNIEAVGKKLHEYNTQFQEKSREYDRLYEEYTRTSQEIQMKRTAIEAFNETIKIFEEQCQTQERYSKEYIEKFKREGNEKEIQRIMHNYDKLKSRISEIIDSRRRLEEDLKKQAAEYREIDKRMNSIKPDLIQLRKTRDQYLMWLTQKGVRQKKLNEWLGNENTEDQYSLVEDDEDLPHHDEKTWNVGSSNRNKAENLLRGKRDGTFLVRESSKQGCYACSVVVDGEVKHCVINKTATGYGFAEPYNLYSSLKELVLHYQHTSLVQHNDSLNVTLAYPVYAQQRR

Row | Structure (SMILES) | pIC50 (prostate line LNCap; Homo sapiens, LNCaP, 72 h) | pIC50 (PI3K) | pIC50 (prostate line LNCap) | pIC50 (breast line MDA468; Homo sapiens, 72 h) | pIC50 (breast line MDA468)
1 | CNC(=O)Nc1ccc(-c2nc(N3CCOCC3)c3cnn(C4CCN(C(=O)c5ccc(Cl)nc5)CC4)c3n2)cc1 [Example 424, 1-[4-(1-{1-[(6-chloropyridin-3-yl)carbonyl]piperidin-4-yl}-4-morpholin-4-yl-1H-pyrazolo[3,4-d]pyrimidin-6-yl)phenyl]-3-methylurea] | 6.82 | 7.08 | – | 6.40 | –
2 | CN(C)CC(=O)Nc1ccc(-c2nc(N3CCOCC3)c3cnn(C4CCCCO4)c3n2)cc1 (stereo not drawn) [Compound 275] | 4.92 | 5.05 | – | 4.40 | –
3 | COC(=O)Nc1ccc(-c2nc(N3CCOCC3)c3cnn(C4CCN(C(=O)c5ccccc5)CC4)c3n2)cc1 [Example 442, methyl {4-[1-(1-benzoylpiperidin-4-yl)-4-morpholin-4-yl-1H-pyrazolo[3,4-d]pyrimidin-6-yl]phenyl}carbamate] | 6.82 | 5.99 | – | 6.30 | –
4 | NC(=O)Nc1ccc(-c2nc(N3CCOCC3)c3cnn(C4CCN(C(=O)c5ccccc5)CC4)c3n2)cc1 [Compound 627, 1-{4-[1-(1-benzoylpiperidin-4-yl)-4-morpholin-4-yl-1H-pyrazolo[3,4-d]pyrimidin-6-yl]phenyl}urea] | – | 7.08 | 6.77 | – | 6.80
5 | CN(C)S(=O)(=O)c1ccc(-c2nc(N3CCOCC3)c3cnn(C4CCN(Cc5ccccc5)CC4)c3n2)cc1 [Compound 87] | 4.64 | 6.11 | – | 4.22 | –
6 | COC(=O)Nc1ccc(-c2nc(N3CCOCC3)c3cnn(C4CCN(Cc5ccc(Cl)cc5)CC4)c3n2)cc1 [Compound 451, methyl (4-{1-[1-(4-chlorobenzyl)piperidin-4-yl]-4-morpholin-4-yl-1H-pyrazolo[3,4-d]pyrimidin-6-yl}phenyl)carbamate] | 5.70 | 6.41 | – | 5.05 | –
7 | CCONC(=O)Nc1ccc(-c2nc(N3CCOCC3)c3cnn(C4CCN(Cc5ccccc5)CC4)c3n2)cc1 [Compound 533, 1-{4-[1-(1-benzylpiperidin-4-yl)-4-morpholin-4-yl-1H-pyrazolo[3,4-d]pyrimidin-6-yl]phenyl}-3-ethoxyurea] | 6.17 | 6.56 | – | 6.80 | –
8 | COC(=O)Nc1ccc(-c2nc(N3CCOCC3)c3cnn(C4CCN(Cc5ccc(F)cc5)CC4)c3n2)cc1 [Compound 694, methyl (4-{1-[1-(4-fluorobenzyl)piperidin-4-yl]-4-morpholin-4-yl-1H-pyrazolo[3,4-d]pyrimidin-6-yl}phenyl)carbamate] | – | 6.12 | 5.92 | – | 5.59
9 | CNC(=O)Nc1ccc(-c2nc(N3CCOCC3)c3cnn(C4CCN(C(=O)OCCOC)CC4)c3n2)cc1 [Compound 800, 2-methoxyethyl 4-(6-{4-[(methylcarbamoyl)amino]phenyl}-4-morpholin-4-yl-1H-pyrazolo[3,4-d]pyrimidin-1-yl)piperidine-1-carboxylate] | 6.85 | 6.92 | – | 6.59 | –
10 | CC(C)C(=O)N1CCC(n2ncc3c(N4CCOCC4)nc(-c4cccc(O)c4)nc32)CC1 [Example 29] | 6.40 | 7.23 | – | 5.92 | –
11 | O=C(Nc1ccncc1)Nc1ccc(-c2nc(N3CCOCC3)c3cnn(C4CCN(C(=O)c5ccccc5)CC4)c3n2)cc1 [Example 384, 1-{4-[1-(1-benzoylpiperidin-4-yl)-4-morpholin-4-yl-1H-pyrazolo[3,4-d]pyrimidin-6-yl]phenyl}-3-pyridin-4-ylurea] | 7.38 | 7.72 | – | 7.00 | –
12 | c1ccc(N2CCC(n3ncc4c(N5CCOCC5)nc(-c5ccc6[nH]ccc6c5)nc43)CC2)nc1 [Compound 217, 6-(1H-indol-5-yl)-4-morpholin-4-yl-1-(1-pyridin-2-ylpiperidin-4-yl)-1H-pyrazolo[3,4-d]pyrimidine] | 5.92 | 5.85 | – | 5.72 | –
13 | O=C(NO)Nc1ccc(-c2nc(N3CCOCC3)c3cnn(C4CCN(Cc5cccnc5)CC4)c3n2)cc1 [Compound 562, 1-hydroxy-3-(4-{4-morpholin-4-yl-1-[1-(pyridin-3-ylmethyl)piperidin-4-yl]-1H-pyrazolo[3,4-d]pyrimidin-6-yl}phenyl)urea] | 5.96 | 6.59 | – | 5.82 | –
14 | COC(=O)N1CCC(n2ncc3c(N4CCOCC4)nc(-c4ccc(NC(=O)Nc5ccc(F)nc5)cc4)nc32)CC1 [Compound 862, methyl 4-[6-(4-{[(6-fluoropyridin-3-yl)carbamoyl]amino}phenyl)-4-morpholin-4-yl-1H-pyrazolo[3,4-d]pyrimidin-1-yl]piperidine-1-carboxylate] | > 7.64 | 6.97 | – | > 7.05 | –
15 | O=C(NCC(F)(F)F)Nc1ccc(-c2nc(N3CCOCC3)c3cnn(C4CCN(Cc5ccccc5)CC4)c3n2)cc1 [Compound 535, 1-{4-[1-(1-benzylpiperidin-4-yl)-4-morpholin-4-yl-1H-pyrazolo[3,4-d]pyrimidin-6-yl]phenyl}-3-(2,2,2-trifluoroethyl)urea] | 6.49 | 6.23 | – | 5.89 | –
16 | CC(C)(C)OC(=O)N1CCC(n2ncc3c(N4CCOCC4)nc(-c4ccc(NC(=O)Nc5ccncc5)cc4)nc32)CC1 [Compound 771, tert-butyl 4-(4-morpholin-4-yl-6-{4-[(pyridin-4-ylcarbamoyl)amino]phenyl}-1H-pyrazolo[3,4-d]pyrimidin-1-yl)piperidine-1-carboxylate] | 7.15 | 7.23 | – | 6.72 | –

Continued by rising pIC50 (PI3K), values first:

Row | pIC50 (prostate line LNCap; Homo sapiens, LNCaP, 72 h) | pIC50 (PI3K) | pIC50 (prostate line LNCap) | Structure (SMILES) | pIC50 (breast line MDA468; Homo sapiens, 72 h) | pIC50 (breast line MDA468)
17 | 6.10 | 5.74 | – | CONC(=O)Nc1ccc(-c2nc(N3CCOCC3)c3cnn(C4CCN(C(=O)c5cccnc5)CC4)c3n2)cc1 [Compound 553, 1-methoxy-3-(4-{4-morpholin-4-yl-1-[1-(pyridin-3-ylcarbonyl)piperidin-4-yl]-1H-pyrazolo[3,4-d]pyrimidin-6-yl}phenyl)urea] | 5.52 | –
18 | – | 5.84 | < 4.22 | Nc1ccnc(-c2nc(N3CCOCC3)c3cnn(-c4ccccc4)c3n2)c1 [Compound 681, 2-(4-morpholin-4-yl-1-phenyl-1H-pyrazolo[3,4-d]pyrimidin-6-yl)pyridin-4-amine] | – | < 4.22
19 | 6.10 | 6.40 | – | COC(=O)N1CCC(n2ncc3c(N4CCOCC4)nc(-c4ccc(NC(=O)NCCO)cc4)nc32)CC1 [Compound 733, methyl 4-[6-(4-{[(2-hydroxyethyl)carbamoyl]amino}phenyl)-4-morpholin-4-yl-1H-pyrazolo[3,4-d]pyrimidin-1-yl]piperidine-1-carboxylate] | 6.24 | –
20 | 6.59 | 6.58 | – | CC(C)(C)OC(=O)N1CCC(n2ncc3c(N4CCOCC4)nc(-c4ccc(NC(=O)Nc5nccs5)cc4)nc32)CC1 [Compound 884, tert-butyl 4-(4-morpholin-4-yl-6-{4-[(1,3-thiazol-2-ylcarbamoyl)amino]phenyl}-1H-pyrazolo[3,4-d]pyrimidin-1-yl)piperidine-1-carboxylate] | 5.80 | –
21 | 6.10 | 6.65 | – | CNC(=O)Nc1ccc(-c2nc(N3CCOCC3)c3cnn(C4CCN(C(C)=O)CC4)c3n2)cc1 [Example 472, 1-{4-[1-(1-acetylpiperidin-4-yl)-4-morpholin-4-yl-1H-pyrazolo[3,4-d]pyrimidin-6-yl]phenyl}-3-methylurea] | 5.92 | –
22 | 6.37 | 6.73 | – | CCCOC(=O)N1CCC(n2ncc3c(N4CCOCC4)nc(-c4ccc(NC(=O)NCCO)cc4)nc32)CC1 [Compound 855, propyl 4-[6-(4-{[(2-hydroxyethyl)carbamoyl]amino}phenyl)-4-morpholin-4-yl-1H-pyrazolo[3,4-d]pyrimidin-1-yl]piperidine-1-carboxylate] | 6.48 | –
23 | 5.92 | 6.77 | – | CCOC(=O)N1CCC(n2ncc3c(N4CCOCC4)nc(-c4ccc(Nc5ncc[nH]5)cc4)nc32)CC1 [Compound 887, ethyl 4-{6-[4-(1H-imidazol-2-ylamino)phenyl]-4-morpholin-4-yl-1H-pyrazolo[3,4-d]pyrimidin-1-yl}piperidine-1-carboxylate] | 5.64 | –
24 | 6.48 | 6.92 | – | CNC(=O)Nc1ccc(-c2nc(N3CCOCC3)c3cnn(C4CCN(C(=O)c5ccc(C)nc5)CC4)c3n2)cc1 [Example 420, 1-methyl-3-[4-(1-{1-[(6-methylpyridin-3-yl)carbonyl]piperidin-4-yl}-4-morpholin-4-yl-1H-pyrazolo[3,4-d]pyrimidin-6-yl)phenyl]urea] | 6.52 | –
25 | > 7.57 | 7.06 | – | CNC(=O)Nc1ccc(-c2nc(N3CCOCC3)c3cnn(C4CCN(C(=O)c5cccc(F)c5)CC4)c3n2)cc1 [Compound 603, 1-(4-{1-[1-(3-fluorobenzoyl)piperidin-4-yl]-4-morpholin-4-yl-1H-pyrazolo[3,4-d]pyrimidin-6-yl}phenyl)-3-methylurea] | 7.10 | –
26 | > 7.57 | 7.13 | – | CNC(=O)Nc1ccc(-c2nc(N3CCOCC3)c3cnn(C4CCC5(CC4)OCCO5)c3n2)cc1 [Compound 566, 1-{4-[1-(1,4-dioxaspiro[4.5]dec-8-yl)-4-morpholin-4-yl-1H-pyrazolo[3,4-d]pyrimidin-6-yl]phenyl}-3-methylurea] | 7.07 | –
27 | 8.17 | 7.52 | – | CCOC(=O)N1CCC(n2ncc3c(N4CCOC[C@@H]4C)nc(-c4ccc(NC(=O)Nc5ccc(N6CCOCC6)cc5)cc4)nc32)CC1 [Compound 899, ethyl 4-{4-[(3S)-3-methylmorpholin-4-yl]-6-(4-{[(4-morpholin-4-ylphenyl)carbamoyl]amino}phenyl)-1H-pyrazolo[3,4-d]pyrimidin-1-yl}piperidine-1-carboxylate] | 6.82 | –
